Common to all, as to assay type: in vivo
One assay concerns Spodoptera littoralis. Briefly: Example B1: Spodoptera littoralis, sprayed cotton leaf discs. The note with it: foliar, 72 h, application rate 200 ppm, L1 larvae, 3 days after infestation. Here is the method: Cotton leaf discs were placed onto agar in 24-well microtiter plates and sprayed with aqueous test solutions prepared from 10′000 ppm DMSO stock solutions. After drying the leaf discs were infested with five L1 larvae. The samples were assessed for mortality, anti-feeding effect, and growth inhibition in comparison to untreated samples 3 days after infestation. Control of Spodoptera littoralis by a test sample is given when at least one of the categories mortality, anti-feedant effect, and growth inhibition is higher than the untreated sample.

The test system of another assay is Tetranychus urticae. Briefly: Example B10: Tetranychus urticae, sprayed bean leaf discs. The note with it: foliar, 192 h, application rate 200 ppm, mixed population (mobile stages), 8 days after infestation. On the procedure: Bean leaf discs on agar in 24-well microtiter plates were sprayed with aqueous test solutions prepared from 10,000 ppm DMSO stock solutions. After drying the leaf discs were infested with a mite population of mixed ages. The samples were assessed for mortality on mixed population (mobile stages) 8 days after infestation.

Another assay relates to Plutella xylostella. The assay is described as follows: Example B3: Plutella xylostella, artificial diet. Particulars: 120 h, application rate 200 ppm, L2 larvae, 5 days after infestation, read-out: effect in at least one of the two categories (mortality or growth inhibition). Here is the method:
24-well microtiter plates with artificial diet were treated with aqueous test solutions prepared from 10,000 ppm DMSO stock solutions by pipetting. After drying, the plates were infested with L2 larvae (10 to 15 per well). The samples were assessed for mortality and growth inhibition in comparison to untreated samples 5 days after infestation.

Another assay concerns Diabrotica balteata. Briefly: Example B4: Diabrotica balteata, sprayed maize sprouts. Particulars: 96 h, application rate 200 ppm, L2 larvae, 4 days after infestation, read-out: effect in at least one of the two categories (mortality or growth inhibition). On the procedure: Maize sprouts placed onto an agar layer in 24-well microtiter plates were treated with aqueous test solutions prepared from 10,000 ppm DMSO stock solutions by spraying. After drying, the plates were infested with L2 larvae (6 to 10 per well). The samples were assessed for mortality and growth inhibition in comparison to untreated samples 4 days after infestation.

The subject of assay [1] is Myzus persicae. Briefly: Example B5: Myzus persicae feeding/contact, sprayed sunflower leaf discs. Particulars: foliar; for mortality at 200 ppm: Myzus persicae, 144 h, application rate 200 ppm, mixed ages, 6 days after infestation; for mortality at 12.5 ppm: Myzus persicae (B5), concentration 12.5 ppm. On the procedure:
Sunflower leaf discs were placed onto agar in a 24-well microtiter plate and sprayed with aqueous test solutions prepared from 10,000 ppm DMSO stock solutions. After drying, the leaf discs were infested with an aphid population of mixed ages. The samples were assessed for mortality 6 days after infestation.

In a further assay the test system is Bemisia tabaci. The assay is described as follows: Example B7: Bemisia tabaci, sprayed cotton leaf discs. The note with it: foliar, 144 h, application rate 200 ppm, adult white flies, 6 days after incubation. Here is the method: Cotton leaf discs were placed on agar in 24-well microtiter plates and sprayed with aqueous test solutions prepared from 10,000 ppm DMSO stock solutions. After drying the leaf discs were infested with adult white flies. The samples were checked for mortality 6 days after incubation.

In assay [2] the test system is Myzus persicae. Briefly: Example B6: Myzus persicae systemic, pea seedling roots in test solution. Particulars: for mortality at 6 ppm: Myzus persicae (B6), concentration 6 ppm; for mortality at 24 ppm: Myzus persicae, 144 h, test rate 24 ppm, mixed ages, 6 days. On the procedure:
Roots of pea seedlings infested with an aphid population of mixed ages were placed directly into aqueous test solutions prepared from 10,000 DMSO stock solutions. The samples were assessed for mortality 6 days after placing seedlings into test solutions.

A further assay has as its system Euschistus heros. The assay is described as follows: Example B8: Euschistus heros, sprayed soybean leaves. The note with it: for mortality at 0.8 ppm: Euschistus heros (B8), concentration 0.8 ppm; for percent effect (mortality or growth inhibition) at 200 ppm: Euschistus heros, 120 h, application rate 200 ppm, N2 nymphs, 5 days after infestation, read-out: effect in at least one of the two categories (mortality or growth inhibition). Here is the method: Soybean leaves on agar in 24-well microtiter plates were sprayed with aqueous test solutions prepared from 10,000 ppm DMSO stock solutions. After drying the leaves were infested with N2 nymphs. The samples were assessed for mortality and growth inhibition in comparison to untreated samples 5 days after infestation.

Usually mortality stands for the share of the test organisms that died. Read a high mortality as fewer survivors. As to `CCS(=O)(=O)c1cc(C(C)(C)C#N)cnc1-c1cn2cnc(C(F)(F)F)cc2n1` [Compound P1, 2-[5-ethylsulfonyl-6-[7-(trifluoromethyl)imidazo[1,2-c]pyrimidin-2-yl]-3-pyridyl]-2-methyl-propanenitrile], the percent control (mortality, anti-feedant effect or growth inhibition) at 200 ppm in the assay on Spodoptera littoralis was at least 80%. Further, the mortality at 200 ppm in the assay with Tetranychus urticae, with Myzus persicae [1] and in the assay on Bemisia tabaci was at least 80% in each case. Besides, the percent effect (mortality or growth inhibition) at 200 ppm with Plutella xylostella, in the assay on Diabrotica balteata and in the assay with Euschistus heros was at least 80% throughout. In the assay on Myzus persicae [1], this molecule showed a mortality at 12.5 ppm of 100%. Besides, the mortality at 6 ppm with Myzus persicae [2] stood at 100%. This molecule also came in with a mortality at 24 ppm with Myzus persicae [2] of at least 80%. For the same molecule, in the assay on Euschistus heros, the mortality at 0.8 ppm came out at 100%.

Molecule `CCS(=O)(=O)c1cc(C(C)(C)C#N)cnc1-n1cc2cnc(C(F)(F)F)cc2n1` [Compound P2, 2-[5-ethylsulfonyl-6-[6-(trifluoromethyl)pyrazolo[4,3-c]pyridin-2-yl]-3-pyridyl]-2-methyl-propanenitrile] had a percent control (mortality, anti-feedant effect or growth inhibition) at 200 ppm with Spodoptera littoralis of at least 80%. Moreover, the percent effect (mortality or growth inhibition) at 200 ppm with Plutella xylostella, with Diabrotica balteata and in the assay on Euschistus heros was at least 80% in each case. Besides, the mortality at 200 ppm with Myzus persicae [1] and with Bemisia tabaci was at least 80% throughout.

`CCS(=O)(=O)c1cc(C(C)(C)C#N)cnc1-c1cn2ccc(SC(F)F)cc2n1` [Compound P5, 2-[6-[7-(difluoromethylsulfanyl)imidazo[1,2-a]pyridin-2-yl]-5-ethylsulfonyl-3-pyridyl]-2-methyl-propanenitrile]: the percent control (mortality, anti-feedant effect or growth inhibition) at 200 ppm in the assay on Spodoptera littoralis is at least 80%. The percent effect (mortality or growth inhibition) at 200 ppm with Diabrotica balteata is at least 80%. For the same molecule, the mortality at 200 ppm in the assay on Myzus persicae [1] and with Bemisia tabaci was at least 80% in each case.

Regarding `CCS(=O)(=O)c1cc(C(C)(C)C#N)cnc1-c1cn2ncc(C(F)(F)F)cc2n1` [Compound P8, 2-[5-ethylsulfonyl-6-[7-(trifluoromethyl)imidazo[1,2-b]pyridazin-2-yl]-3-pyridyl]-2-methyl-propanenitrile], the percent control (mortality, anti-feedant effect or growth inhibition) at 200 ppm with Spodoptera littoralis was at least 80%. Moreover, the percent effect (mortality or growth inhibition) at 200 ppm in the assay on Plutella xylostella, in the assay with Diabrotica balteata and in the assay on Euschistus heros was at least 80% in each case. In addition, the mortality at 200 ppm in the assay on Myzus persicae [1] and in the assay on Bemisia tabaci was at least 80% each time. The molecule also returned a mortality at 24 ppm in the assay with Myzus persicae [2] of at least 80%.

`CCS(=O)(=O)c1cc(C(C)(C)C#N)cnc1-c1cn2ccc(C(F)(F)F)cc2n1` [Compound P9, 2-[5-ethylsulfonyl-6-[7-(trifluoromethyl)imidazo[1,2-a]pyridin-2-yl]-3-pyridyl]-2-methyl-propanenitrile] returned a percent control (mortality, anti-feedant effect or growth inhibition) at 200 ppm in the assay on Spodoptera littoralis of at least 80%. Besides, the mortality at 200 ppm with Tetranychus urticae and with Myzus persicae [1] was at least 80% each time. The percent effect (mortality or growth inhibition) at 200 ppm in the assay on Plutella xylostella and in the assay with Diabrotica balteata was at least 80% throughout.

As for `CCSc1cc(C(C)(C)C#N)cnc1-c1nc2cc(C(F)(F)F)n(CC(F)(F)F)c(=O)c2n1C` [Compound P10, 2-[5-ethylsulfanyl-6-[3-methyl-4-oxo-5-(2,2,2-trifluoroethyl)-6-(trifluoromethyl)imidazo[4,5-c]pyridin-2-yl]-3-pyridyl]-2-methyl-propanenitrile], the percent effect (mortality or growth inhibition) at 200 ppm in the assay on Plutella xylostella and in the assay with Diabrotica balteata was at least 80% in each case. For the same molecule, the mortality at 200 ppm with Myzus persicae [1] and in the assay with Bemisia tabaci was at least 80% in each case.

For `CCn1c(C(F)(F)F)cc2nc(-c3ccc(C(C)(C)C#N)cc3S(=O)(=O)CC)n(C)c2c1=O` [Compound P13, 2-[4-[5-ethyl-3-methyl-4-oxo-6-(trifluoromethyl)imidazo[4,5-c]pyridin-2-yl]-3-ethylsulfonyl-phenyl]-2-methyl-propanenitrile], in the assay with Spodoptera littoralis, the percent control (mortality, anti-feedant effect or growth inhibition) at 200 ppm is at least 80%. Also, the percent effect (mortality or growth inhibition) at 200 ppm in the assay on Plutella xylostella and with Diabrotica balteata was at least 80% in each case. In addition, the mortality at 200 ppm with Bemisia tabaci is at least 80%.

For `CCS(=O)(=O)c1cc(C(C)(C)C#N)cnc1-c1cn2cnc(SC(F)F)cc2n1` [Compound P14, 2-[6-[7-(difluoromethylsulfanyl)imidazo[1,2-c]pyrimidin-2-yl]-5-ethylsulfonyl-3-pyridyl]-2-methyl-propanenitrile], the percent control (mortality, anti-feedant effect or growth inhibition) at 200 ppm in the assay with Spodoptera littoralis was at least 80%. Besides, the percent effect (mortality or growth inhibition) at 200 ppm in the assay with Plutella xylostella, with Diabrotica balteata and with Euschistus heros was at least 80% in each case. Besides, the mortality at 200 ppm with Myzus persicae [1] and in the assay with Bemisia tabaci was at least 80% each time.

For `CCS(=O)(=O)c1cc(C(C)(C)C#N)cnc1-c1cn2cnc(S(=O)(=O)C(F)F)cc2n1` [Compound P15, 2-[6-[7-(difluoromethylsulfonyl)imidazo[1,2-c]pyrimidin-2-yl]-5-ethylsulfonyl-3-pyridyl]-2-methyl-propanenitrile], the percent effect (mortality or growth inhibition) at 200 ppm in the assay on Plutella xylostella is at least 80%. Further, the mortality at 200 ppm in the assay on Myzus persicae [1] is at least 80%. In addition, the mortality at 24 ppm with Myzus persicae [2] is at least 80%.

On to `CCS(=O)(=O)c1cc(C(C)(C)C#N)cnc1-c1cn2cnc([S+]([O-])C(F)F)cc2n1` (stereo not drawn) [Compound P16, 2-[6-[7-(difluoromethylsulfinyl)imidazo[1,2-c]pyrimidin-2-yl]-5-ethylsulfonyl-3-pyridyl]-2-methyl-propanenitrile], for which the percent effect (mortality or growth inhibition) at 200 ppm in the assay on Plutella xylostella is at least 80%. Besides, the mortality at 200 ppm with Myzus persicae [1] was at least 80%. Moreover, the mortality at 24 ppm in the assay on Myzus persicae [2] was at least 80%.

Molecule `CCSc1cc(C(C)(C)C#N)cnc1-c1nc2cc(C(F)(F)F)n(C3CC3)c(=O)c2n1C` [Compound P18, 2-[6-[5-cyclopropyl-3-methyl-4-oxo-6-(trifluoromethyl)imidazo[4,5-c]pyridin-2-yl]-5-ethylsulfanyl-3-pyridyl]-2-methyl-propanenitrile] yielded a percent control (mortality, anti-feedant effect or growth inhibition) at 200 ppm in the assay on Spodoptera littoralis of at least 80%. Also, the mortality at 200 ppm with Tetranychus urticae and with Myzus persicae [1] was at least 80% in each case. Besides, the percent effect (mortality or growth inhibition) at 200 ppm with Plutella xylostella and with Diabrotica balteata was at least 80% throughout.

The molecule `CCS(=O)(=O)c1cc(C(C)(C)C#N)ccc1-c1cn2ccc(C(F)(F)F)cc2n1` [Compound P19, 2-[3-ethylsulfonyl-4-[7-(trifluoromethyl)imidazo[1,2-a]pyridin-2-yl]phenyl]-2-methyl-propanenitrile] had a percent control (mortality, anti-feedant effect or growth inhibition) at 200 ppm with Spodoptera littoralis of at least 80%. The percent effect (mortality or growth inhibition) at 200 ppm in the assay with Plutella xylostella and with Diabrotica balteata was at least 80% throughout. The mortality at 200 ppm with Bemisia tabaci was at least 80%.

`CCS(=O)(=O)c1cc(C(C)(C)C#N)ccc1-c1cn2cnc(C(F)(F)F)cc2n1` [Compound P20, 2-[3-ethylsulfonyl-4-[7-(trifluoromethyl)imidazo[1,2-c]pyrimidin-2-yl]phenyl]-2-methyl-propanenitrile]: the percent effect (mortality or growth inhibition) at 200 ppm in the assay on Plutella xylostella and in the assay with Diabrotica balteata was at least 80% throughout. The mortality at 200 ppm in the assay on Myzus persicae [1] and with Bemisia tabaci was at least 80% in each case.

With `CCS(=O)(=O)c1cc(C2(C#N)CC2)cnc1-c1cn2cnc(C(F)(F)F)cc2n1` [reference compound], the mortality at 12.5 ppm in the assay with Myzus persicae [1] is 0%. In the assay with Myzus persicae [2], this molecule returned a mortality at 6 ppm of 0%. The mortality at 0.8 ppm in the assay on Euschistus heros stood at 0%.

Source of the values: patent US11413291B2, “Pesticidally active heterocyclic derivatives with sulfur containing substituents” (SYNGENTA PARTICIPATIONS AG, priority 2017, dated 2022).
